Tested on: disuse deconditioning
Test: Disuse deconditioning (tail suspension) in rats
Assay type: in vivo
Conditions: 1 or 5 μg/kg IP twice daily
Description: Adult male Sprague-Dawley rats (355-365 g) were used in this study. Animals were housed individually in standard rat cages and were acclimated on a treadmill for 4 days. The next day, a baseline tail bleed was performed, followed by a maximal treadmill stress test the day after. The day following the stress test, the animals were divided into the appropriate treatment and control groups and the animals were suspended by their tails in suspension cages, which simulates weightlessness and, therefore, deconditions the animals. Another group of control animals was placed in standard rat cages with grated flooring similar to that utilized in the suspension cages. All animals were housed one per cage and supplied with food and water ad libitum. Body weights and food consumptions were measured daily. Animals received twice daily IP injections of 1 μg/kg or 5 μg/kg body weight of EX-2 (treated), or 1 ml/kg body weight of saline (control). On day 10, all animals were stress tested on the treadmill until they reached exhaustion. Data on maximum VO2 and running time were collected and compared to pre-suspension results. On day 14, all animals were sacrificed, and blood, tissues, and organs were collected for further analysis. All procedures and tests were performed blind to avoid researcher subjectivity. Statistical significance (p<0.05) between groups was evaluated by ANOVA with Student-Newman-Keuls test for multiple comparisons. All data are reported as the mean ± standard error (SE).
All of the animals were subjected to the stress tests, which measured exercise time and maximal VO2. As well, levels of the oxidative enzyme soleus citrate synthase and tibia bone density were measured.
Soleus citrate synthase was attenuated by 50%.

[1] = suspended rats, stress test day 10

## Ac-Nle-Gln-His-(D)Phe-Arg-(D)Trp-Gly-NH2 [EX-2]
14 days suspension
  % Attenuation of suspension-induced decrease, Soleus Citrate Synthase: 50%
  % Attenuation of suspension-induced decrease, Tibia Bone Density: 50%
[1]
  % Attenuation of suspension-induced decrease, Exercise Time: 44%
  % Attenuation of suspension-induced decrease, Maximal VO2: 80%

Source: patent US5726156A, “Cytokine regulatory agents and methods of use in pathologies and conditions associated with altered cytokine levels” (Trega Biosciences, Inc., priority 1995, dated 1998)
